Experimental data taken from patent publication US8008074B2, “Compositions and methods for improving bone mass through modulation of receptors of PTH and fragments thereof” (The UAB Research Foundation, priority 2006, dated 2011).
“Also recorded” adds a separate entry of the source.

What was measured:
Type in all cases: cell-based
LRP6/Axin binding = experiment: Axin-LRP6 binding immunoprecipitation assay; conditions: for Axin-LRP6 binding: HEK 293 cells cotransfected with LRP6, Axin and GSK3β, ligand for 1 hour; for inhibition of PTH-induced binding of Axin to LRP6: pre-treatment 30 minutes, then PTH (1-84) for 1 hour
Axin = Axin protein levels; conditions: cells overexpressing LRP6
Source text: Binding of Axin to phosphorylated LRP6 leads to rapid degradation. Then inhibition of Axin/LRP6 binding should […] degradation of Axin. Indeed, Axin degradation is reduced by both inhibitors (data not shown). […] PKA and PKC also were examined to determine whether they regulate PTH-induced PTH1R/LRP6 complex formation. […] Apparently, the receptor complex formation is independent of activation of PKA and PKC. Instead, it seems that activation of G protein-mediated PKA and PKC signaling is in parallel with the recruitment of LRP5/6 in PTH signaling. PKA and PKC activity is required for LRP5/6 phosphorylation and Axin/LRP6 binding.
Wnts induce binding of Axin to phosphorylated LRP6, and the membrane-bound Axin undergoes rapid protein dephosphorylation and degradation, which eventually leads to β-catenin stabilization Willert et al., 1999; Yamamoto et al., 1999).

[1] = system: Wnt responsive luciferase reporter (TCF4-Luc); experiment: TCF4-Luc luciferase reporter assay in UMR 106 cells
β-catenin = β-catenin stabilization, Western blot of UMR 106 cell fractions; conditions: UMR 106 cells; inhibitor 30 minutes before 10^−7 M PTH (1-84) for 1 hour; cytosolic fraction

Molecule | Axin-LRP6 binding (LRP6/Axin binding) | Axin protein levels (Axin) | inhibition of PTH-stimulated TCF4-luciferase reporter activity [1] | inhibition of PTH-induced β-catenin stabilization (β-catenin) | inhibition of PTH-induced binding of Axin to LRP6 (LRP6/Axin binding) | TCF luciferase activity ([1]; 5×10^−7 M of indicated PTH ligands for 12 hours)
PTH 79-84: C-terminal PTH ligand as printed; possibly misprint of 39-84 (TKAKSQ; Parathyroid hormone; UniProt P01270 110-115, looked up, fragment) | did not | did not affect Axin level | – | – | – | –
Calphostin C | – | – | inhibited activity from a TCF4-luciferase reporter | less effective; also recorded: inhibit PTH-induced β-catenin stabilization | much weaker; also recorded: inhibit the binding of Axin with LRP6 | –
O=S(=O)(NCCNC/C=C/c1ccc(Br)cc1)c1cccc2cnccc12 [H89] | – | – | inhibited activity from a TCF4-luciferase reporter | inhibit PTH-induced β-catenin stabilization | inhibit the binding of Axin with LRP6 | –
PTHrP 1-40: PTHrP fragment 1-40 tested beside PTH ligands | stimulated Axin-LRP6 binding | further downregulated Axin protein levels | – | – | – | significantly elevated
